Reference: patent publication US12514928B2, “Herboxidiene antibody-drug conjugates and methods of use” (Eisai R&D Management Co., Ltd., priority 2018, dated 2026)

Columns and labels:
NCIH1650.1 = test: Herboxidiene splicing modulator cell potency, CTGlo-ATS, NCIH1650.1, 72 h; assay type: cell-based; settings: for CTGIo-ATS GMean LD50 (nM) 72 h NCIH1650.1 / CTGIo-ATS Mean MinResponse % 72 h NCIH1650.1: payload; for GI50: read-out: CTGIo-ATS GMean GI50 (nM) 72 h NCIH1650.1
THP1.1 = test: Herboxidiene splicing modulator cell potency, CTGlo-ATS, THP1.1, 72 h; assay type: cell-based; settings: for CTGIo-ATS GMean LD50 (nM) 72 h THP1.1 / CTGIo-ATS Mean MinResponse % 72 h THP1.1: payload; for GI50: read-out: CTGIo-ATS GMean GI50 (nM) 72 h THP1.1
[1] = Caco-2 permeability of ADC payload; assay type: in vitro ADME; settings: human; for Papp A→B at 2 h, 10 μM / Papp B→A at 2 h, 10 μM: payload at 10 μM; for Papp A→B at 2 h, 10 μM: apical to basolateral, read-out: Permeability Mean Caco-2 A-B Perm; for efflux ratio at 2 h, 10 μM: B-A/A-B, read-out: ER; for Papp B→A at 2 h, 10 μM: head incomplete (column between A-B and ER)
Description: 3.5.2 Caco-2 Permeability of ADC Payload
Caco-2 cells were cultured for 21 days in transwell 24-well plates at 37° C., 95% humidity, 5% CO2. Integrity of cell monolayer was confirmed by TEER (transepithelial electrical resistance) and Lucifer yellow. Payloads were spiked in duplicate at 10 μM, separately, on both sides of the cell monolayer. Permeability rates from the apical to basolateral (A-B) direction and the basolateral to apical (B-A) direction were determined by sampling aliquots from both chambers immediately after treatment (t=0) and following incubation for 2 hours. Samples were protein precipitated with organic solvent containing internal standard and analyzed by LC-MS/MS (SCI EX; API 5500). The area ratio responses of payload/internal standard over time in both directions were used to generate permeability (cm/sec) values. Efflux ratio was calculated by dividing B-A/A-B. Control compounds for low and high permeability and efflux behaved as expected.

Ad2.2 pre-mRNA = test: In vitro splicing (IVS) assay with HeLa nuclear extract, RT-qPCR of spliced product; assay type: biochemical; settings: payload, HELA.2, read-out: qPCR-IVS-ATS GMean IC50 (nM) Ad2.2 HELA.2
Description: 2.1 In Vitro Splicing (IVS)
To evaluate payload activity in a cell-free system, an in vitro splicing assay was performed. The payloads were incubated with nuclear extracts and pre-mRNA substrate minigenes.
HeLa nuclear extract preparation: HeLa S3 cell pellets were resuspended in hypotonic buffer (10 mM HEPES pH 7.9, 1.5 mM MgCl2, 10 mM KCl, 0.2 mM PMSF, 0.5 mM DTT) and the suspension was brought up to a total of 5 packed cell volume (PCV). After centrifugation, the supernatant was discarded, and the cells were brought up to 3 PCV with hypotonic buffer and incubated on ice for 10 min. Cells were lysed using a dounce homogenizer and then centrifuged. The supernatant was discarded, and the pellet was resuspended with […] packed nuclear volume (PNV) of low salt buffer (20 mM HEPES pH 7.9, 1.5 mM MgCl2, 20 mM KCl, 0.2 mM EDTA, 25% glycerol, 0.2 mM PMSF, 0.5 mM DTT), followed by 1/2 PNV of high salt buffer (same as low salt buffer except 1.4 M KCl). The nuclei were gently mixed for 30 min before centrifuging. The supernatant (nuclear extract) was then dialyzed into storage buffer (20 mM HEPES pH 7.9, 100 mM KCl, 0.2 mM EDTA, 20% glycerol, 0.2 mM PMSF, 0.5 mM DTT). Protein concentration was determined using NanoDrop 8000 UV-Vis spectrophotometer (ThermoFisher Scientific).
IVS: All Ad2-derived sequences (Pellizzoni et al. (1998) Cell 95(5):615-24) were cloned into pcDNA3.1(+) vector (Promega) using 5′ EcoRI and 3′ Xbal restriction sites. The plasmids were linearized using Xbal and used as DNA templates in in vitro transcription reactions. The FtzΔi intron-less plasmid (Luo and Reed (1999) 96(26):14937-42) was linearized using EcoRI. All RNAs were in vitro transcribed and then purified using MEGAScript T7 (Invitrogen) and MegaClear (Invitrogen) kits, respectively. For splicing reactions using Ad2 variant pre-mRNAs, […] were prepared using 8 μg nuclear extracts prepared from HeLa S3, 2 ng pre-mRNA, 0.2 ng FTZΔi, and varying concentrations of compounds or DMSO. After a 15 min pre-incubation at 30° C., 1 μL splicing activation buffer (0.5 mM ATP, 20 mM creatine phosphate, 1.6 mM MgCl2) was added, and the reactions were incubated for 90 min at 30° C. The reactions were then quenched with 13 μL DMSO, and 25 nL was used for RT-qPCR. RT-qPCR reactions were prepared using TaqMan RNA-to-CT 1-step kit (Life Technologies), RNA from splicing reactions, Ad2 (forward: […]; reverse: […]; probe: CTGTTGGGCTCGCGGTTG) and Ftz (forward: […]; reverse: […]; probe: […]) mRNA primer-probe sets. Prism 7 (Graphpad) was used for non-linear regression curve fitting of the formed spliced product and normalized to the control (DMSO) sample.

Ad2.1 = test: In vitro splicing (IVS) assay, qPCR-IVS-ATS, Ad2.1 substrate, HELA.2; assay type: biochemical; settings: payload, read-out: qPCR-IVS-ATS GMean IC50 (nM) Ad2.1 HELA.2
SF3b complex = SF3b complex (Homo sapiens, UniProt O75533+Q7RTV0); test: Payload binding to the SF3b complex (SF3B1 binding); settings: SF3B1 (WT), HELA.2, read-out: SPA-ATS GMean IC50 (nM) SF3B1 (WT) HELA.2
Description: Exemplary herboxidiene spliceosome modulator payloads used in the preparation of ADCs were profiled. Payloads were evaluated for binding to the SF3b complex, in vitro splicing activity, and ability to inhibit cell growth.

[2] = Chemical stability of ADC payload in Mcilvane buffer pH 5.5; assay type: physicochemical; settings: payload 20 μM, pH 5.5, 37° C.; for half-life at 20 μM: McIlvaine (citrate-phosphate) buffer, read-out: Stability Mean Stability t½ pH 5.5 (converted); for Stability Mean Stability % pH 5.5 t 24 h: % remaining at 24 h
Description: 3.5.3 Chemical Stability of ADC Payload
Herboxidiene splicing modulators were incubated in Mcilvane (Citrate-Phosphate) buffer, pH 5.5 (Boston Bioproducts; #BB-2466) at a final concentration of 20 μM (less than 0.5% DMSO from stock solution). The herboxidiene splicing modulator solution and the internal standard were pipetted into 96-well plates, ran on UPLC (Waters Acquity H class), and analyzed for initial chromatographic signal (t=0). The column was a Waters UPLC HSS T3 1.8 μm 2.1×50 mm column (#186003538). A gradient of mobile phase A from 95% to 10% was employed over 1 min, where A was 0.1% formic acid in water and mobile phase B was 0.1% formic acid in acetonitrile (flow rate 0.9 mL/min). The remainder of the herboxidiene splicing modulator solution was kept in a plate shaker at 37° C. (Eppendorf ThermoMixer). Sample analyses by UPLC were repeated at 24, 72, and 96 hours post-incubation at 37° C. The area ratio response of the herboxidiene splicing modulator and internal standard was determined for three time points: time 0, day 1, and either day 3 or day 4. Time 0 was set to 100. The area ratio responses of the later time points were compared to time 0. Percent remaining was calculated as follows: (Area Ratio day X/Area Ratio time 0)*100=% remaining. The slope of the line was calculated in Excel comparing the log of % remaining and time point.

[3] = in vivo; cited from earlier work

| Compound | CTGIo-ATS GMean LD50 (nM) 72 h NCIH1650.1 (NCIH1650.1) [nM] | CTGIo-ATS Mean MinResponse % 72 h NCIH1650.1 (NCIH1650.1) [%] | GI50 (NCIH1650.1) [nM] | CTGIo-ATS GMean LD50 (nM) 72 h THP1.1 (THP1.1) [nM] | CTGIo-ATS Mean MinResponse % 72 h THP1.1 (THP1.1) [%] | GI50 (THP1.1) [nM] | Papp A→B at 2 h, 10 μM [1] [×10⁻⁶ cm/s] | IC50 (Ad2.2 pre-mRNA) [nM] | IC50 (Ad2.1) [nM] | IC50 (SF3b complex) [nM] | efflux ratio at 2 h, 10 μM [1] | Papp B→A at 2 h, 10 μM [1] [×10⁻⁶ cm/s] | half-life at 20 μM [2] [h] | Stability Mean Stability % pH 5.5 t 24 h [2] [%] | plasma half-life [3] |
| --- | --- | --- | --- | --- | --- | --- | --- | --- | --- | --- | --- | --- | --- | --- | --- |
| CO[C@H]([C@@H](C)[C@H]1O[C@]1(C)C[C@H](C)/C=C/C=C(\C)[C@H]1O[C@@H](CNC(=O)CCOCCOC(=O)N2CCCNCC2)CC[C@@H]1C)[C@@H](C)O [Compound H9, 2-(3-((((2R,5S,6S)-6-((S,2E,4E)-7-((2R,3R)-3-((2R,3R,4R)-4-hydroxy-3-methoxypentan-2-yl)-2-methyloxiran-2-yl)-6-methylhepta-2,4-dien-2-yl)-5-methyltetrahydro-2H-pyran-2-yl)methyl)amino)-3-oxopropoxy)ethyl 1,4-diazepane-1-carboxylate] | 2.681 | 2.327 | 0.481 | 14.441 | −101.645 | 1.34 | 11.6 | 8.66 | 9.68 | – | – | – | – | – | – |
| CO[C@H]([C@@H](C)[C@H]1O[C@]1(C)C[C@H](C)/C=C/C=C(\C)[C@H]1O[C@@H](CNC(=O)CCCCCOC(=O)N2CCCNCC2)CC[C@@H]1C)[C@@H](C)O [Compound H6, 6-((((2R,5S,6S)-6-((S,2E,4E)-7-((2R,3R)-3-((2R,3R,4R)-4-hydroxy-3-methoxypentan-2-yl)-2-methyloxiran-2-yl)-6-methylhepta-2,4-dien-2-yl)-5-methyltetrahydro-2H-pyran-2-yl)methyl)amino)-6-oxohexyl 1,4-diazepane-1-carboxylate] | 1.336 | 0.978 | 0.219 | 6.522 | −101.275 | 0.701 | 5.72 | 7.19 | 9.51 | – | – | – | – | – | – |
| CO[C@H]([C@@H](C)[C@H]1O[C@]1(C)C[C@H](C)/C=C/C=C(\C)[C@H]1O[C@@H](CNC(=O)CCCCCOC(=O)N2CCNCC2)CC[C@@H]1C)[C@@H](C)O [Compound H5, 6-((((2R,5S,6S)-6-((S,2E,4E)-7-((2R,3R)-3-((2R,3R,4R)-4-hydroxy-3-methoxypentan-2-yl)-2-methyloxiran-2-yl)-6-methylhepta-2,4-dien-2-yl)-5-methyltetrahydro-2H-pyran-2-yl)methyl)amino)-6-oxohexyl piperazine-1-carboxylate] | >10000 | −25.308 | 0.407 | 3.415 | −103.352 | 0.433 | 1.04 | 17.8 | 30.3 | 12.9 | 22.7 | 23.6 | > 168 | >100 | – |
| CO[C@H]([C@@H](C)[C@H]1O[C@]1(C)C[C@H](C)/C=C/C=C(\C)[C@H]1O[C@@H](CC(=O)O)C[C@@H](OC(=O)N2CCNCC2)[C@@H]1C)[C@@H](C)O [Compound H1, 2-((2R,4R,5S,6S)-6-((S,2E,4E)-7-((2R,3R)-3-((2R,3R,4R)-4-hydroxy-3-methoxypentan-2-yl)-2-methyloxiran-2-yl)-6-methylhepta-2,4-dien-2-yl)-5-methyl-4-((piperazine-1-carbonyl)oxy)tetrahydro-2H-pyran-2-yl)acetic acid] | >10000 | 10.179 | 182 | 697.273 | −84.238 | 114 | 0.263 | 33.7 | 72.6 | 11.7 | 1.27 | 0.334 | 84 | 79 | – |
| tremelimumab: fully human anti-CTLA4 antibody, IgG2 | – | – | – | – | – | – | – | – | – | – | – | – | – | – | approximately 22 days |
| Ipilimumab: fully human anti-CTLA4 antibody, IgG1 | – | – | – | – | – | – | – | – | – | – | – | – | – | – | 288 to 336 h |
| CO[C@H]([C@@H](C)[C@H]1O[C@]1(C)C[C@H](C)/C=C/C=C(\C)[C@H]1O[C@@H](CC(=O)N[C@@H](CCCOC(=O)N2CCNCC2)C(=O)O)CC[C@@H]1C)[C@@H](C)O [Compound H4, (S)-2-(2-((2R,5S,6S)-6-((S,2E,4E)-7-((2R,3R)-3-((2R,3R,4R)-4-hydroxy-3-methoxypentan-2-yl)-2-methyloxiran-2-yl)-6-methylhepta-2,4-dien-2-yl)-5-methyltetrahydro-2H-pyran-2-yl)acetamido)-5-((piperazine-1-carbonyl)oxy)pentanoic acid] | 2575.18 | 728.583 | 464 | 5337.399 | −40.902 | 649 | 19.3 | 29.6 | 31.6 | 14.5 | – | – | – | – | – |
